Measurements published in patent US12383547B2, “Methods of treatment for a kidney disease” (Vanderbilt University, priority 2020, dated 2025).
Like-named read-outs stand apart in the source and are kept apart here.

Assays:
AKI in adult patients = experiment: Epidemiologic EHR analysis (Vanderbilt 'Synthetic Derivative') of montelukast use and AKI; assay type: in vivo, human; conditions: N=3,721 adult patients, 147 users; logistic regression adjusted for race, sex, age, BMI, asthma; 95% CI: 13 to 56%; AKI defined as printed '≥21.5-fold serum creatine increase from baseline'
Excerpt: Epidemiologic EHR data from Vanderbilt's ‘Synthetic Derivative’ was examined to determine whether montelukast use is associated with decreased AKI. Individuals eligible for inclusion in the dataset included those with two or more serum creatinine labs occurring after montelukast gained marketing approval (N=3,721), and children were excluded. Montelukast users were defined as those with ≥23 mentions of montelukast where 22 mentions are 230 days apart (N=147). AKI was defined as a ≥21.5-fold serum creatine increase from baseline (N=1,220). ‘Case users’ were defined as those who qualified as both an AKI case and a montelukast user (N=58). Crude and adjusted odds ratios (OR) and 95% confidence intervals (CI) were calculated using logistic regression.

asthma patients (FEV1) = conditions: cited from earlier work
[1] = cited from earlier work
animal models = conditions: cited from earlier work
[2] = cited from earlier work; remark: listed apart in the source
[3] = single oral dose of 10, 100, or 250 mg

In the case of CC(C)(O)c1ccccc1CC[C@@H](SCC1(CC(=O)O)CC1)c1cccc(/C=C/c2ccc3ccc(Cl)cc3n2)c1 [Montelukast, [R-(E)]-1-[[[1-[3-[2-(7-chloro-2-quinolinyl)ethenyl]phenyl]-3-[2-(1-hydroxy-1-methylethyl)phenyl]propyl]thio]methyl]cyclopropaneacetic acid], the “reduced odds (risk) of AKI, montelukast users compared to non-users” value (AKI in adult patients) is given as 38%, the “FEV1 increase at higher doses versus 10 mg once daily” value (asthma patients (FEV1); 200 mg three times per day) is given as “failed to increase FEV1 more than 10 mg once daily” and the “period for which FEV1 effects were maintained” value (asthma patients (FEV1); [3]) is given as 24 h. The “time to significant improvement of FEV1 after administration” value (asthma patients (FEV1); [3]) was at most 1 h, the adverse events ([1]; 200 mg three times per day for 10 days) was “no significant adverse events” and the “safety or effectiveness in subjects 65 years and over versus younger subjects” value ([1]; clinical studies of montelukast, 3.5% were 65 and over, 0.4% were 75 and over) was “No overall differences in safety or effectiveness”. For the same compound, the neuropsychiatric disturbances ([1]; phase IV post marketing studies, chronic montelukast users, additional research did not support this finding) was “concern for neuropsychiatric disturbances was noted”, the adverse events ([1]; single doses of 800 mg) was “no significant adverse events” and the markers of inflammation (animal models) was “attenuate markers of inflammation”. The “markers of oxidative stress” value (animal models; leukotriene antagonists such as montelukast) was “attenuate markers of oxidative stress”, the “plasma concentration in dose ranging study” value ([2]; dose ranging study of 20-800 mg) was “dose-dependent increase in plasma concentration” and the half-life ([2]; human, in vivo) was 5 h. The “potential for drug-drug interactions” value ([2]; human, in vivo) was “low potential for drug-drug interactions”, the “steady state plasma levels achieved” value ([2]; human, in vivo) was 2 Day of dosing and the “pharmacokinetics in elderly volunteers versus younger adults” value ([2]; oral 10 mg, elderly (aged 265 years as printed) vs younger adults (aged 20 to 45 years)) was “similar”. For the same compound, the “elimination via the renal route” value ([2]; package insert) was “not significantly eliminated via the renal route”.
